According to a compilation of properties of binary mixtures (doi:10.1016/j.fluid.2020.112621):

Test: xn = mol fraction of the nth substance listed
Conditions: 101 kPa

CCCC(=O)[O-].CC[NH+](CC)CCO + CCCC[n+]1ccn(C)c1.COP(=O)([O-])OC
viscosity [mPa·s]
Conditions | x1 = 0.1023 | x1 = 0.1989 | x1 = 0.3026 | x1 = 0.3985 | x1 = 0.498 | x1 = 0.6001 | x1 = 0.6613 | x1 = 0.8006 | x1 = 0.8788 | x1 = 1
278.15 K | 2058 | 1152.2 | 671 | 445 | 322.4 | 255.2 | 231 | – | 191 | –
283.15 K | 1309.9 | 764 | 459 | 311.5 | 228.5 | – | 165.4 | 140.9 | 136.5 | –
288.15 K | – | 522 | 322.9 | 223.4 | 165.9 | 133.2 | – | 103.2 | 99.6 | 96.9
293.15 K | 587 | 367 | 233 | – | – | – | 90.5 | 77.1 | – | 71.6
298.15 K | 411 | – | 172.1 | 122.9 | 93.3 | 75.8 | 69 | 58.8 | 56.4 | 54
303.15 K | 294.9 | – | 129.8 | 94 | 72 | – | 53.58 | 45.58 | 43.6 | 41.42
308.15 K | 216.6 | 146.7 | 99.8 | – | 56.55 | 46.34 | 42.29 | 35.94 | 34.28 | 32.34
313.15 K | 162.7 | 112.5 | – | 57.98 | – | 37.1 | – | 28.77 | 27.36 | 25.64
318.15 K | – | 87.9 | 61.99 | 46.61 | 36.5 | – | 27.53 | – | 22.14 | 20.63
323.15 K | 96.9 | – | 49.98 | 37.99 | 29.93 | 24.77 | – | 19.2 | 18.14 | 16.82
328.15 K | 76.7 | 56.15 | 40.85 | 31.37 | 24.84 | – | 18.87 | 15.97 | 15.04 | 13.87
333.15 K | 61.58 | 45.81 | 33.8 | 26.18 | 20.85 | 17.35 | 15.88 | 13.42 | 12.6 | 11.56
338.15 K | 50.11 | 37.83 | 28.27 | 22.09 | 17.68 | 14.74 | – | – | 10.66 | –
343.15 K | 41.29 | – | 23.89 | – | 15.13 | – | 11.56 | 9.74 | 9.09 | 8.27
348.15 K | 34.41 | 26.65 | 20.38 | 16.18 | – | 10.92 | 9.99 | 8.41 | 7.82 | 7.08
353.15 K | 28.99 | 22.7 | – | 14.02 | 11.35 | 9.51 | 8.69 | – | – | –
358.15 K | 24.65 | 19.51 | 15.22 | – | 9.95 | 8.33 | – | 6.39 | 5.92 | –
363.15 K | 21.15 | 16.9 | 13.3 | 10.76 | 8.77 | 7.36 | 6.72 | 5.63 | 5.2 | 4.65
368.15 K | 18.3 | 14.76 | – | 9.52 | 7.78 | 6.53 | 5.97 | 4.99 | 4.6 | –
373.15 K | 15.96 | 12.97 | 10.37 | 8.47 | 6.95 | 5.84 | 5.33 | 4.45 | 4.08 | 3.61

CCCCC(=O)[O-].CC[NH+](CC)CCO + CCCC[n+]1ccn(C)c1.COP(=O)([O-])OC
viscosity [mPa·s]
Conditions | x1 = 0.1018 | x1 = 0.1952 | x1 = 0.3029 | x1 = 0.4003 | x1 = 0.4973 | x1 = 0.5989 | x1 = 0.6984 | x1 = 0.7978 | x1 = 0.8868 | x1 = 1
278.15 K | 2088 | 1185.7 | 676 | 440 | 318.2 | 250.8 | – | 190.6 | 171.4 | 156.6
283.15 K | 1327.5 | 786 | 464 | 309 | – | 180.3 | 156.2 | 137.6 | 123.9 | 113.1
288.15 K | – | 536 | 327.1 | 222.5 | 165.5 | 132.6 | 115 | 101.5 | 91.4 | 83.2
293.15 K | – | 376 | 236.3 | 163.8 | 123.3 | 99.4 | 86.4 | 76.3 | 68.8 | 62.4
298.15 K | 416 | – | 174.8 | 123.2 | 93.8 | – | 66.1 | – | 52.75 | 47.75
303.15 K | 298.4 | – | – | 94.6 | 72.7 | 59.21 | 51.52 | 45.65 | 41.15 | –
308.15 K | 219.3 | – | 101.6 | 73.8 | 57.24 | – | 40.78 | 36.17 | 32.59 | 29.31
313.15 K | 164.7 | 115.4 | – | – | 45.77 | – | 32.76 | 29.07 | – | 23.48
318.15 K | 126 | – | 63.2 | – | 37.12 | – | – | 23.66 | 21.33 | 19.07
323.15 K | 98.1 | 71.4 | 50.96 | 38.46 | 30.5 | 25.23 | 21.99 | – | 17.59 | 15.68
328.15 K | 77.7 | 57.48 | 41.66 | 31.79 | – | – | – | 16.26 | 14.66 | 13.03
333.15 K | – | 46.87 | – | – | 21.3 | 17.73 | 15.45 | 13.7 | – | –
338.15 K | 50.75 | – | 28.83 | 22.42 | – | – | 13.14 | 11.64 | 10.49 | 9.27
343.15 K | 41.81 | 32.29 | 24.35 | – | – | 12.94 | – | 9.98 | 8.99 | 7.91
348.15 K | 34.84 | 27.23 | 20.77 | 16.43 | 13.36 | – | 9.74 | 8.63 | 7.76 | 6.81
353.15 K | 29.34 | 23.18 | 17.87 | 14.23 | 11.63 | – | 8.48 | 7.51 | 6.75 | 5.9
358.15 K | 24.95 | 19.9 | 15.5 | 12.43 | 10.19 | 8.56 | 7.44 | 6.58 | – | –
363.15 K | – | 17.23 | 13.54 | 10.92 | 8.99 | 7.56 | – | 5.81 | 5.2 | 4.52
368.15 K | 18.52 | 15.03 | 11.92 | 9.66 | 7.98 | 6.72 | 5.83 | 5.15 | 4.61 | 3.99
373.15 K | 16.15 | 13.21 | 10.55 | – | 7.12 | 6 | 5.2 | 4.59 | 4.1 | –
